System: ERK, AKT and S6K activity in M cells
Assay: Immunoblotting of signaling pathways in M cells
Assay type: cell-based, human
Source text: The following antibodies were used for Western blotting: anti-phospho ERK 1,2 (Sigma St Louis, MO, Reference M8159)), anti-phospho Akt, anti-Akt and anti-phospho S6 Kinase (Cell Signaling, Cambridge, UK, respectively References 4051, 9272, 9234) and anti-TFE3 anti ERKs (Santa Cruz Biotechnology, Santa Cruz, CA references sc 5958 (TFE3) and sc 93 (ERK)).
The effects of the different drugs on proliferation are correlated with the activity of intracellular signaling pathways (ERK and PI3 kinase/AKT/mTOR/S6 kinase (S6K)) in TF cells. […] The effects of the different drugs on signaling pathways have been tested in CC and M cells. […] Everolimus inhibited S6K with reactivation of AKT.
Supplementary file pone.0089449.s001.tif: Figure S1 In vitro sensitivity of the CC and M cells to the different drugs used to treat the patients; specific impact on downstream signaling pathways. A) The activity of major signaling pathways (ERK, PI3K/AKT/mTOR/S6K) in response to the different treatments (sunitinib (Su), sorafenib (So) and everolimus (Ev)) was determined by analysis of the presence of the phosphorylated forms of the kinases (pERK, pAKT, pS6K) in TF cells following a short-term treatment (two hours) by immunoblotting. Tubulin is shown as a loading control. […]

With `CO[C@H]1C[C@@H]2CC[C@@H](C)[C@@](O)(O2)C(=O)C(=O)N2CCCC[C@H]2C(=O)O[C@H]([C@H](C)C[C@@H]2CC[C@@H](OCCO)[C@H](OC)C2)CC(=O)[C@H](C)/C=C(\C)[C@@H](O)[C@@H](OC)C(=O)[C@H](C)C[C@H](C)/C=C/C=C/C=C/1C` [everolimus] the S6K activity was “strong inhibition”.
